Reference: ChEMBL document CHEMBL5465560, “Selectivity Literature for EUbOPEN Chemogenomic Library” (2024)
Blank lines part the entries; values can stand above or below the compound they belong to.

Assays:
[1] = target: T1, Tyrosine-protein kinase receptor TYRO3 (Homo sapiens) (UniProt Q06418); assay: Selectivity interaction (Kinase panel (Z-LYTE Assay)) EUB0001632a TYRO3; conditions: at 10 µM
T1 sequence (whole entry): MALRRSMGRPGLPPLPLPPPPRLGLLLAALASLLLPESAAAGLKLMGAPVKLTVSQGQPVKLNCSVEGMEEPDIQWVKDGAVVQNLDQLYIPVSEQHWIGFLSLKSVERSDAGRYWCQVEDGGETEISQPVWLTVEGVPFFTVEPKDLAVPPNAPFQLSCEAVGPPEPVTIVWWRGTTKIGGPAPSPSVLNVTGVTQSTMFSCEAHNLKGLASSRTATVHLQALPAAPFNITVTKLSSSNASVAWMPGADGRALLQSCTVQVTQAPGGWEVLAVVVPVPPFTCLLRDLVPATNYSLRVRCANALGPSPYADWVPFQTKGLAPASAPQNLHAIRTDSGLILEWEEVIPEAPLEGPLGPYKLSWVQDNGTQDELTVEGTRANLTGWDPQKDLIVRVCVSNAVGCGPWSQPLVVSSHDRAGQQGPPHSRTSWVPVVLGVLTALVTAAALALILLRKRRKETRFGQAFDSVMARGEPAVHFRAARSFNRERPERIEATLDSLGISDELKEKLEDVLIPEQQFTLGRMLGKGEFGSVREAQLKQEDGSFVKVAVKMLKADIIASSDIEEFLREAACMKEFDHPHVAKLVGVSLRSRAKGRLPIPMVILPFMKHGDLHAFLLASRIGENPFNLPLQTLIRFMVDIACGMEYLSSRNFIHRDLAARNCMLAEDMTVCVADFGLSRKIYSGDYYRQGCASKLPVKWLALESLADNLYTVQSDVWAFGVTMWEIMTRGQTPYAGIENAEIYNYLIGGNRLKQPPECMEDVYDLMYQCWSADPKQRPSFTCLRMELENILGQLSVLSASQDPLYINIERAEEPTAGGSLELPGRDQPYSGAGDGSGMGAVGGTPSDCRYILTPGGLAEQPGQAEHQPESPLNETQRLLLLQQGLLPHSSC

[2] = target: Cyclin-dependent kinase 5 (Homo sapiens, UniProt Q00535); assay: Selectivity interaction (KinomeScan (DiscoverX)) EUB0000607a CDK5; conditions: at 10 µM
[3] = target: Serine/threonine-protein kinase PAK 2 (Homo sapiens) (UniProt Q13177); assay: Selectivity interaction (Kinase panel (Invitrogen)) EUB0000639a PAK2; conditions: at 200 nM
[4] = target: Mitogen-activated protein kinase 10 (Homo sapiens, UniProt P53779); assay: Selectivity interaction (Kinase panel (Invitrogen)) EUB0000639a MAPK10; conditions: at 200 nM
[5] = target: Angiopoietin-1 receptor (Homo sapiens) (UniProt Q02763); assay: Selectivity interaction (Ambit KINOMEscan and KiNATiv profiling in Jurkat cells) EUB0000090b TEK; assay type: cell-based; conditions: at 1 µM
[6] = target: Serine/threonine-protein kinase OSR1 (Homo sapiens) (UniProt O95747); assay: Selectivity interaction (Kinase panel (KiNativ target engagement assay in Jurkat cells)) EUB0001635a OXSR1; assay type: cell-based; conditions: Selectivity number of off-targets 0.0, Selectivity number of targets 233.0, Source Knowledge https://www.sciencedirect.com/science/article/pii/S2451945619300674?via%3Dihub, at 1 µM
[7] = target: T2, Serine/threonine-protein kinase Nek3 (Homo sapiens) (UniProt P51956); assay: Selectivity interaction (Kinase panel (KiNativ target engagement assay in Jurkat cells)) EUB0001635a NEK3; assay type: cell-based; conditions: at 1 µM
T2 sequence (whole entry): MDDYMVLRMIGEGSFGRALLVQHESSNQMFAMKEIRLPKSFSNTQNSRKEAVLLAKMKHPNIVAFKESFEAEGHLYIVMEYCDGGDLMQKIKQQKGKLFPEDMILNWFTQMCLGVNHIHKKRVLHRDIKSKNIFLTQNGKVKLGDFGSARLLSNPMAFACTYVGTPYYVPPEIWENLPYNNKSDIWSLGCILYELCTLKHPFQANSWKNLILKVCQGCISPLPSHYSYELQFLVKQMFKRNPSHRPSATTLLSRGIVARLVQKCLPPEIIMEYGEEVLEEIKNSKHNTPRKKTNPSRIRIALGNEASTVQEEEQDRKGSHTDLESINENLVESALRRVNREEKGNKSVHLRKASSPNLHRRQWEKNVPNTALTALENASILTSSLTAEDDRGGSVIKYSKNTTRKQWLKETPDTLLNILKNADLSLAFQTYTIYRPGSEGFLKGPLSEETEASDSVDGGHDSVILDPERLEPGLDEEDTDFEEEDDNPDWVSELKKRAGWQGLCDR

[8] = target: T3, Serine/threonine-protein kinase LATS1 (Homo sapiens) (UniProt O95835); assay: Selectivity interaction (KinomeScan (DiscoverX)) EUB0000618a LATS1; conditions: at 10 µM
T3 sequence (whole entry): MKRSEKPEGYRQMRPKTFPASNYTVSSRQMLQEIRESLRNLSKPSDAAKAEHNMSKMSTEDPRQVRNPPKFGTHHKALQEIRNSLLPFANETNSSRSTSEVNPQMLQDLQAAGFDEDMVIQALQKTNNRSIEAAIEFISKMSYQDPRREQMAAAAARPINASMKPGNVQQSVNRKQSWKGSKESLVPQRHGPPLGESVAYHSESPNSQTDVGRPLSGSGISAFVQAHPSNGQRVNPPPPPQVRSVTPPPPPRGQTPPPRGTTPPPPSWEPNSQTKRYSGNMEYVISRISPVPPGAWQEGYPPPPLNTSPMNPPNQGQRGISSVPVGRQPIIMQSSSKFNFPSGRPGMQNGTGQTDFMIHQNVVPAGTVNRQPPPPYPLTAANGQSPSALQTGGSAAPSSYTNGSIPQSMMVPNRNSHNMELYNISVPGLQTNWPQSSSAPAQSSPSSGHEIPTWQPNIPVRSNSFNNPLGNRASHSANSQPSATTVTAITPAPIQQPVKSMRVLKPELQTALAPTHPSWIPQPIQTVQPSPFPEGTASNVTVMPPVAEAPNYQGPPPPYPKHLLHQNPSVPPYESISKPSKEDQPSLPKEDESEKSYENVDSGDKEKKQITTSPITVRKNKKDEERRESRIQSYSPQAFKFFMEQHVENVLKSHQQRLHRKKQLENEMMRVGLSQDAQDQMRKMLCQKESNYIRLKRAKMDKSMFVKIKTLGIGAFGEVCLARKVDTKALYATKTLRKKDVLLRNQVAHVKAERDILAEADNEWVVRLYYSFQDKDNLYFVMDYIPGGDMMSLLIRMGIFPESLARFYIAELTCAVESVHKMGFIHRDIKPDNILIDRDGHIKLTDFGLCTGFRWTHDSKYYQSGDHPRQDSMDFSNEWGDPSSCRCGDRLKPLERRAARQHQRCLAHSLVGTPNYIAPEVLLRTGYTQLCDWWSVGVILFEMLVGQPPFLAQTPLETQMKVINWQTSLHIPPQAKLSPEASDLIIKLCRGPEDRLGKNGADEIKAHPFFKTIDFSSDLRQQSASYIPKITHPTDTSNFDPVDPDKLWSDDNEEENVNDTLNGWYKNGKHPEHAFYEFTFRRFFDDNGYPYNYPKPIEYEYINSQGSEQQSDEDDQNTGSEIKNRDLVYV

Cyclin-dependent kinase 5, sequence (Q00535 whole entry, looked up): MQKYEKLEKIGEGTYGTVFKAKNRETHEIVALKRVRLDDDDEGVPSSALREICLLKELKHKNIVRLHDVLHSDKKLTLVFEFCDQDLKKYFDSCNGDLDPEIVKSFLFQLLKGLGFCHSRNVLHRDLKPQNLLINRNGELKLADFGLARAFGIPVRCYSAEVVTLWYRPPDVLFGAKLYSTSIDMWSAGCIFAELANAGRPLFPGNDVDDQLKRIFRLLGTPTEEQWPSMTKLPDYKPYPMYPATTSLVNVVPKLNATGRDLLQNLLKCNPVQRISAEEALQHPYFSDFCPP
Serine/threonine-protein kinase PAK 2 (Homo sapiens), sequence (Q13177 whole entry): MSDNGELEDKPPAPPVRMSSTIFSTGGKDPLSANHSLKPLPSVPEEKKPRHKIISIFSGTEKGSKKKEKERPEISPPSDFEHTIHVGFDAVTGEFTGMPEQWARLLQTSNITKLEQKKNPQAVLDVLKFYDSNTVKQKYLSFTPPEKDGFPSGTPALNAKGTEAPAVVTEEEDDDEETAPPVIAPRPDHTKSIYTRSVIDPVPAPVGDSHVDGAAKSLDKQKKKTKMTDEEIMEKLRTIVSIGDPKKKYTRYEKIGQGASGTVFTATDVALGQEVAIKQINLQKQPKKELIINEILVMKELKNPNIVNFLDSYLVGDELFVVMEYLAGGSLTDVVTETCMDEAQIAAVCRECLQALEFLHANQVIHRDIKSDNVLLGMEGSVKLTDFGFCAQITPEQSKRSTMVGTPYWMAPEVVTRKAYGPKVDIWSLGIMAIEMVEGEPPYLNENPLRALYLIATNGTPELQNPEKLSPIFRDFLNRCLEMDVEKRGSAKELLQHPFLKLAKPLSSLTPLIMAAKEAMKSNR
Mitogen-activated protein kinase 10, sequence (P53779 whole entry): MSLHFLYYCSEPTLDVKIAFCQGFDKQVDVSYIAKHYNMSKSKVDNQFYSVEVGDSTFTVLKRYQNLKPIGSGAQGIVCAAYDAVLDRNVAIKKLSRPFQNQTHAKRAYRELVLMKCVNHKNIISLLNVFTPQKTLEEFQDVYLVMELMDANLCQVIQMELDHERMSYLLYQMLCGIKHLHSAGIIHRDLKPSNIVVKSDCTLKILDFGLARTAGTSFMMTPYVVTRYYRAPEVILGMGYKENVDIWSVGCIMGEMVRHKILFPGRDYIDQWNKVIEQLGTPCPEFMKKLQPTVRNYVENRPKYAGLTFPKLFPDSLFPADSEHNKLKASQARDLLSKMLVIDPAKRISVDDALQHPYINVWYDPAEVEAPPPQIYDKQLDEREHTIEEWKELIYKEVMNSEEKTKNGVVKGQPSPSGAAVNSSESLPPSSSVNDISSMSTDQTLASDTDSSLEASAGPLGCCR
Angiopoietin-1 receptor (Homo sapiens), sequence (Q02763 whole entry): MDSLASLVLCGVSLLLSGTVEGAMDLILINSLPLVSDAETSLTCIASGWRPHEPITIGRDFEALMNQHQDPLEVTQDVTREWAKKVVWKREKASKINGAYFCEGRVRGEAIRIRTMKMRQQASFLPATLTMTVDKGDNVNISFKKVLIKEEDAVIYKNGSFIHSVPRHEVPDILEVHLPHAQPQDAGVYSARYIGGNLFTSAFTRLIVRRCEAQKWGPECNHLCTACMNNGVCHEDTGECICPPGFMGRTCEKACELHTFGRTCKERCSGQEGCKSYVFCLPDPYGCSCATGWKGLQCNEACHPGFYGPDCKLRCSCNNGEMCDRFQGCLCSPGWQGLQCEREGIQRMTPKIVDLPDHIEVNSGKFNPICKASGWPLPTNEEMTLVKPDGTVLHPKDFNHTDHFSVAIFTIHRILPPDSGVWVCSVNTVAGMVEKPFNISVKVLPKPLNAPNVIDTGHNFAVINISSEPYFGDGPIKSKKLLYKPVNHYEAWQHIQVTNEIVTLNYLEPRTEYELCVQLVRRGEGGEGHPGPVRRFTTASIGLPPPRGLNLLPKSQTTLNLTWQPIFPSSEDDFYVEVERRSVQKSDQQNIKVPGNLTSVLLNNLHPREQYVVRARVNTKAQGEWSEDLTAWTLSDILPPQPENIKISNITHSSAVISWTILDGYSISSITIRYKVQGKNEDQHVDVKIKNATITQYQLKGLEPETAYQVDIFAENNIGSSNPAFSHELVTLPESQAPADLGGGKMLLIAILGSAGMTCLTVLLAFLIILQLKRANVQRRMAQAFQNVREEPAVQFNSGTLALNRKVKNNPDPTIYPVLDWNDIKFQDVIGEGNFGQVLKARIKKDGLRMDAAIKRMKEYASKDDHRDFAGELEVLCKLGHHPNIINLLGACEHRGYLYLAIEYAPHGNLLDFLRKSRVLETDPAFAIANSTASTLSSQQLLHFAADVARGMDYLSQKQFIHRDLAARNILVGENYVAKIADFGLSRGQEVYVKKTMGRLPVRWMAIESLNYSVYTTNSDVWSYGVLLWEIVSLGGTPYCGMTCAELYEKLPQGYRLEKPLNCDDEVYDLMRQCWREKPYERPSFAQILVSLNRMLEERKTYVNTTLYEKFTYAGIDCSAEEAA
Serine/threonine-protein kinase OSR1 (Homo sapiens), sequence (O95747 2-527 limits assumed): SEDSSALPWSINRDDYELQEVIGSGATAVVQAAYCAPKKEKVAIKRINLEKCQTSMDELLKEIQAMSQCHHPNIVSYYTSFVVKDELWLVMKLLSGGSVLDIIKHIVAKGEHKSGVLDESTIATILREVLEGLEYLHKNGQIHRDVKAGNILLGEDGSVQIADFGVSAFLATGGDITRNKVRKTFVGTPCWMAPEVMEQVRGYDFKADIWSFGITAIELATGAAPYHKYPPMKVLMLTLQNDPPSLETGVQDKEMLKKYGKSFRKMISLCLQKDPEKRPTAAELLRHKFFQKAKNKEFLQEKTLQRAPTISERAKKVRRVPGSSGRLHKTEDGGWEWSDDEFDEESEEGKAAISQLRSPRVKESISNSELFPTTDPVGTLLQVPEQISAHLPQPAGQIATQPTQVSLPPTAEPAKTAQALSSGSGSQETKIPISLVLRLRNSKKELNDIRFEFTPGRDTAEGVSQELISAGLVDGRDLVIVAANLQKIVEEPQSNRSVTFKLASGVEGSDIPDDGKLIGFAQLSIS

% of control [1]: -1.87%
Structure (SMILES): Cn1cc(-n2cnc3c(NCc4nc5cc(Cl)c(Cl)cc5[nH]4)nc(N4CCOCC4)nc32)cn1

Structure (SMILES): CNC(=O)Nc1ccc(-c2nc(N3CC4CCC(C3)O4)c3cnn(C4CCC5(CC4)OCCO5)c3n2)cc1
% of control [2]: 88%

% of inhibition [3]: 3.6%
% of inhibition [4]: 6.65%
Structure (SMILES): CC[C@@H]1[C@H](F)C(=O)N[C@@H]1COc1nccc2cc(C(N)=O)c(OC)cc12 [ZIMLOVISERTIB]

Structure (SMILES): CN(C)C/C=C/C(=O)Nc1ccc(C(=O)N2CCCC(Nc3ncc(Cl)c(-c4c[nH]c5ccccc45)n3)C2)cc1 (stereo not drawn)
% of control [5]: 92%

Structure (SMILES): C=CC(=O)Nc1ccc(C(=O)Nc2[nH]nc3c2CN(C(=O)N[C@H](CN(C)C)c2ccccc2)C3(C)C)cc1
% of engagement [6]: 2.6%
% of engagement [7]: 4.4%

Structure (SMILES): O[C@H]1CC[C@H](Nc2ncc3nc(Nc4c(F)cc(F)cc4F)n([C@H]4CCOC4)c3n2)CC1
% of control [8]: 100%
